Read-outs that look alike come from different tables or passages of the source.
Test system: wild-type HIV-1 strain IIIB
Assay: microbe, parasite or virus in culture
Assay type: cell-based
[1] = Human immunodeficiency virus 1, IIIB
[2] = Human immunodeficiency virus 1, IIIB, class symbols
[3] = read-out: Anti-HIV-1 Cell Culture Activity EC50

Row | SMILES | EC50 [1] [nM] | also measured
1 | CC(C)CN(CC(O)C(Cc1ccccc1)NC(=O)OC1COC2OCCC12)S(=O)(=O)c1cccc(O)c1 (centres unmarked) | < 50 | –
2 | COc1ccc(S(=O)(=O)N(CC(C)C)CC(O)C(Cc2ccc(OCP(=O)(OCc3ccccc3)OC(C)C(=O)OCc3ccccc3)cc2)NC(=O)OC2COC3OCCC23)cc1 (centres unmarked) [drawing 1775 R1=OBn R2=Lac-Bn] | 50 to 500 | –
3 | CCOP(=O)(CCC1=CCN(CC(NC(=O)OC2COC3OCCC23)C(O)CN(CC(C)C)S(=O)(=O)c2ccc(OC)cc2)CC1)OCC (centres unmarked) | < 50 | –
4 | CC(C)CN(CC(O)C(Cc1ccccc1)NC(=O)OC1COC2OCCC12)S(=O)(=O)c1cccc(OCP(=O)(O)O)c1 (centres unmarked) | 50 to 500 | –
5 | CC(C)CN(CC(O)C(Cc1ccc(OCCN(C)C)cc1)NC(=O)OC1COC2OCCC12)S(=O)(=O)c1ccc(OCP(=O)(OCc2ccccc2)OCc2ccccc2)cc1 (centres unmarked) [OC2H4—NMe2, OBn] | 50 to 500 | –
6 | COc1ccc(S(=O)(=O)N(CC(C)C)CC(O)C(Cc2ccc(OCc3ccccc3)cc2)NC(=O)OC2COC3OCCC23)cc1 (centres unmarked) | < 50 | –
7 | CC(C)CN(CC(O)C(Cc1ccc(OCP(=O)(OCc2ccccc2)OCc2ccccc2)cc1)NC(=O)OC1COC2OCCC12)S(=O)(=O)c1ccccc1 (centres unmarked) | < 50 | –
8 | CCOP(=O)(COc1ccc(CC(NC(=O)OC2COC3OCCC23)C(O)CN(CC(C)C)S(=O)(=O)c2ccc([N+](=O)[O-])cc2)cc1)OCC (centres unmarked) | < 50 | –
9 | CCOP(=O)(Cc1ccc(N(C)CC(NC(=O)OC2COC3OCCC23)C(O)CN(CC(C)C)S(=O)(=O)c2ccc(OC)cc2)cc1)OCC (centres unmarked) | < 50 | –
10 | CCOC(=O)C(C)OP(=O)(COc1ccc2c(c1)CCN(CC(NC(=O)OC1COC3OCCC13)C(O)CN(CC(C)C)S(=O)(=O)c1ccc(OC)cc1)C2)Oc1ccccc1 (centres unmarked) | – | EC50 [2]: 50 to 500 nM
11 | CCOP(=O)(CN1CC=C(CC(NC(=O)OC2COC3OCCC23)C(O)CN(CC(C)C)S(=O)(=O)c2ccc(OC)cc2)CC1)OCC (centres unmarked) | < 50 | –
12 | COC(=O)C(C)OP(=O)(COc1ccc(CC(NC(=O)OC2COC3OCCC23)C(O)CN(CC(C)C)S(=O)(=O)c2ccc(OC)cc2)cc1)Oc1ccccc1 [drawing 1775 R1=OPh R2=(R)Lac-Me] | – | EC50 [2]: < 50 nM
13 | COc1ccc(S(=O)(=O)N(CC(C)C)C[C@@H](OP(=O)(O)O)[C@H](Cc2ccccc2)NC(=O)O[C@H]2CO[C@H]3OCC[C@H]32)cc1 [Phosphate Prodrug of 94-003] | < 50 | –
14 | CC(C)CN(CC(O)C(Cc1ccc(OCP(=O)(OCc2ccccc2)OCc2ccccc2)cc1)NC(=O)OC1COC2OCCC12)S(=O)(=O)c1ccc(C(F)(F)F)cc1 (centres unmarked) | < 50 | –
15 | CC(C)CN(CC(O)C(Cc1ccccc1)NC(=O)OC1COC2OCCC12)S(=O)(=O)c1ccc(O)cc1 (centres unmarked) | < 50 | –
16 | CC(C)CN(CC(O)C(Cc1ccc(O)cc1)NC(=O)OC1COC2OCCC12)S(=O)(=O)c1ccc(OCP(=O)(OCc2ccccc2)OCc2ccccc2)cc1 (centres unmarked) [OH, OBn] | 50 to 500 | –
17 | COc1ccc(S(=O)(=O)N(CC(C)C)CC(O)C(Cc2ccccc2)NC(=O)OC2COC3OCCC23)cc1OCP(=O)(O)O (centres unmarked) | 50 to 500 | –
18 | COc1ccc(S(=O)(=O)N(CC(C)C)CC(O)C(CNc2ccc(CP(=O)(OCc3ccccc3)OCc3ccccc3)cc2)NC(=O)OC2COC3OCCC23)cc1 (centres unmarked) | < 50 | –
19 | CC(C)CN(CC(O)C(Cc1ccc(OCP(=O)(OCc2ccccc2)OCc2ccccc2)cc1)NC(=O)OC1COC2OCCC12)S(=O)(=O)c1ccc(F)cc1 (centres unmarked) | < 50 | –
20 | CC(C)CN(CC(O)C(Cc1ccc(OCP(=O)(OCc2ccccc2)OCc2ccccc2)cc1)NC(=O)OC1COC2OCCC12)S(=O)(=O)c1ccc(OC(F)(F)F)cc1 (centres unmarked) | < 50 | –

Row | SMILES | EC50 [1] [nM] | also measured
21 | CCCCOC(=O)CNP(=O)(COc1ccc(CC(NC(=O)OC2COC3OCCC23)C(O)CN(CC(C)C)S(=O)(=O)c2ccc(OC)cc2)cc1)NCC(=O)OCCCC (centres unmarked) [Compound 16b] | – | EC50 (Human immunodeficiency virus 1, IIIB, MT2, 120 h, read-out: Anti-HIV-1 Cell Culture Activity EC50): 17.5 ± 10.5 nM
22 | CCNc1ccc(S(=O)(=O)N(CC(C)C)CC(O)C(Cc2ccc(OCP(=O)(OCC)OCC)cc2)NC(=O)OC2COC3OCCC23)cc1 (centres unmarked) | < 50 | –
23 | CC(C)CN(CC(O)C(Cc1ccc(OCCN(C)C)cc1)NC(=O)OC1COC2OCCC12)S(=O)(=O)c1ccc(OCP(=O)(O)O)cc1 (centres unmarked) [OC2H4NMe2, OH] | 500 to 5000 | –
24 | CC(C)CN(CC(O)C(Cc1ccc(OCP(=O)(OCc2ccccc2)OCc2ccccc2)cc1)NC(=O)OC1COC2OCCC12)S(=O)(=O)c1ccc(C#N)cc1 (centres unmarked) | < 50 | –
25 | COc1ccc(S(=O)(=O)N(CCN2CCOCC2)CC(O)C(Cc2ccc(OCP(=O)(OCc3ccccc3)OCc3ccccc3)cc2)NC(=O)OC2COC3OCCC23)cc1 (centres unmarked) | 50 to 500 | –
26 | COc1ccc(S(=O)(=O)N(CC(C)C)CC(O)C(CC2=CCN(CCP(=O)(OCc3ccccc3)OCc3ccccc3)CC2)NC(=O)OC2COC3OCCC23)cc1 (centres unmarked) | < 50 | –
27 | CCOP(=O)(COc1ccc(CC(NC(=O)OC2COC3OCCC23)C(O)CN(CC(C)C)S(=O)(=O)c2cccc(N)c2)cc1)OCC (centres unmarked) | 50 to 500 | –
28 | CC(C)CN(CC(O)C(Cc1ccc(OCP(=O)(OCc2ccccc2)OCc2ccccc2)cc1)NC(=O)OC1COC2OCCC12)S(=O)(=O)c1cccc(N)c1 (centres unmarked) | < 50 | –
29 | CC(C)CN(CC(O)C(Cc1ccc(OCP(=O)(OCc2ccccc2)OCc2ccccc2)cc1)NC(=O)OC1COC2OCCC12)S(=O)(=O)N1CCN(C)CC1 (centres unmarked) | 50 to 500 | –
30 | CCOC(=O)C(C)OP(=O)(O)COc1ccc(CC(NC(=O)OC2COC3OCCC23)C(O)CN(CC(C)C)S(=O)(=O)c2ccc(OC)cc2)cc1 (centres unmarked) [Met LX] | – | EC50 [3]: 1750 ± 354 nM
31 | CCCCOC(=O)C(C)OP(=O)(COc1ccc(CC(NC(=O)OC2COC3OCCC23)C(O)CN(CC(C)C)S(=O)(=O)c2cccc(N)c2)cc1)Oc1ccccc1 (centres unmarked) | 50 to 500 | –
32 | COc1ccc(S(=O)(=O)N(CC2CCN(C=O)CC2)CC(O)C(Cc2ccc(OCP(=O)(OCc3ccccc3)OCc3ccccc3)cc2)NC(=O)OC2COC3OCCC23)cc1 (centres unmarked) | 50 to 500 | –
33 | COc1ccc(S(=O)(=O)N(CC(C)C)CC(O)C(Cc2ccccc2)NC(=O)OC2COC3OCCC23)cc1O (centres unmarked) | < 50 | –
34 | CCOP(=O)(COc1cc(S(=O)(=O)N(CC(C)C)CC(O)C(Cc2ccccc2)NC(=O)OC2COC3OCCC23)ccc1OC)OCC (centres unmarked) | 50 to 500 | –
35 | CCOP(=O)(Cc1ccc(NCC(NC(=O)OC2COC3OCCC23)C(O)CN(CC(C)C)S(=O)(=O)c2ccc(OC)cc2)cc1)OCC (centres unmarked) | < 50 | –
36 | CC(C)CN(CC(O)C(Cc1ccc(O)cc1)NC(=O)OC1COC2OCCC12)S(=O)(=O)c1ccc(N)cc1 (centres unmarked) [OH, p-NH2] | 50 to 500 | –
37 | COc1ccc(S(=O)(=O)N(CC(C)C)CC(O)C(Cc2ccc(P(=O)(O)O)cc2)NC(=O)OC2COC3OCCC23)cc1 (centres unmarked) [drawing 1770 R1=OH R2=OH] | > 5000 | –
38 | COc1ccc(S(=O)(=O)N(CC(C)C)CC(O)C(Cc2ccc(NCP(=O)(NC(C)C(=O)OC(C)C)Oc3ccccc3)cc2)NC(=O)OC2COC3OCCC23)cc1 (centres unmarked) [drawing 1822] | – | EC50 (class symbols): < 50 nM
39 | COc1ccc(S(=O)(=O)N(CC(C)C)CC(O)C(Cc2ccc(OCP(=O)(O)NC(C)C(=O)O)cc2)NC(=O)OC2COC3OCCC23)cc1 (centres unmarked) [Met X] | – | EC50 [3]: > 10000 nM
40 | CC(C)CN(C[C@@H](OP(=O)(O)O)[C@H](Cc1ccccc1)NC(=O)O[C@H]1CCOC1)S(=O)(=O)c1ccc(N)cc1 [Phosphate Prodrug of Ampenavir] | 50 to 500 | –

Row | SMILES | EC50 [1] [nM] | also measured
41 | COc1ccc(S(=O)(=O)N(CC(C)C)CC(O)C(Cc2ccc(NCP(=O)(NC(C)C(=O)OC(C)C)Oc3ccccc3)cc2)NC(=O)OC2COC3OCCC23)cc1 (centres unmarked) [drawing 1821] | – | EC50 (class symbols): 50 to 500 nM
42 | COc1ccc(S(=O)(=O)N(CC(C)C)CC(O)C(Cc2ccc(NCP(=O)(NC(C)C(=O)OC(C)C)Oc3ccccc3)cc2)NC(=O)OC2COC3OCCC23)cc1 (centres unmarked) [drawing 1820] | – | EC50 [2]: < 50 nM
43 | CC(C)CN(CC(O)C(Cc1ccc(OCP(=O)(OCc2ccccc2)OCc2ccccc2)cc1)NC(=O)OC1COC2OCCC12)S(=O)(=O)c1ccc(N)cc1 (centres unmarked) | < 50 | –
44 | CCOP(=O)(CCNCc1ccc(CC(NC(=O)OC2COC3OCCC23)C(O)CN(CC(C)C)S(=O)(=O)c2ccc(OC)cc2)cc1)OCC (centres unmarked) [drawing 1779 R1=Et R2=Et] | < 50 | –
45 | COc1ccc(S(=O)(=O)N(CC(C)C)CC(O)C(CC2=CCN(CCP(=O)(OC)OC)CC2)NC(=O)OC2COC3OCCC23)cc1 (centres unmarked) | 50 to 500 | –
46 | CCOP(=O)(COc1cc(S(=O)(=O)N(CC(C)C)CC(O)C(Cc2ccccc2)NC(=O)OC2COC3OCCC23)ccc1O)OCC (centres unmarked) | 50 to 500 | –
47 | CCOP(=O)(COc1ccc(S(=O)(=O)N(CC(C)C)CC(O)C(Cc2ccc(N(C)C)cc2)NC(=O)OC2COC3OCCC23)cc1)OCC (centres unmarked) [NMe2, OEt] | < 50 | –
48 | CCOC(=O)C(Cc1ccccc1)NP(=O)(COc1ccc(CC(NC(=O)OC2COC3OCCC23)C(O)CN(CC(C)C)S(=O)(=O)c2ccc(OC)cc2)cc1)NC(Cc1ccccc1)C(=O)OCC (centres unmarked) [Example 16i] | – | EC50 [3]: 17 ± 12 nM
49 | CCOP(=O)(CON=Cc1ccc(CC(NC(=O)OC2COC3OCCC23)C(O)CN(CC(C)C)S(=O)(=O)c2ccc(OC)cc2)cc1)OCC (centres unmarked) [drawing 1781 R1=Et R2=Et] | < 50 | –
50 | CCCCOC(=O)C(CC(C)C)NP(=O)(COc1ccc(CC(NC(=O)OC2COC3OCCC23)C(O)CN(CC(C)C)S(=O)(=O)c2ccc(OC)cc2)cc1)NC(CC(C)C)C(=O)OCCCC (centres unmarked) [Example 16h] | – | EC50 [3]: 120 ± 42 nM
51 | COc1ccc(S(=O)(=O)N(CC(C)C)CC(O)C(Cc2ccc(NCP(=O)(OCc3ccccc3)OCc3ccccc3)cc2)NC(=O)OC2COC3OCCC23)cc1 (centres unmarked) | < 50 | –
52 | CC(C)CN(CC(O)C(Cc1ccc(OCP(=O)(OCc2ccccc2)OCc2ccccc2)cc1)NC(=O)OC1COC2OCCC12)C(=O)OC(C)(C)C (centres unmarked) | 50 to 500 | –
53 | CC(C)CN(CC(O)C(Cc1ccc(O)cc1)NC(=O)OC1COC2OCCC12)S(=O)(=O)c1cccc(N)c1 (centres unmarked) [OH, m-NH2] | 50 to 500 | –
54 | CCOP(=O)(CNc1ccc(CC(NC(=O)OC2COC3OCCC23)C(O)CN(CC(C)C)S(=O)(=O)c2ccc(OC)cc2)cc1)OCC (centres unmarked) | < 50 | –
55 | CCOP(=O)(COc1ccc(CC(NC(=O)OC2COC3OCCC23)C(O)CN(CC(C)C)S(=O)(=O)c2ccc(N)cc2)cc1)OCC (centres unmarked) | < 50 | –
56 | CCOP(=O)(COC1CCN(CC(NC(=O)OC2COC3OCCC23)C(O)CN(CC(C)C)S(=O)(=O)c2ccc(OC)cc2)CC1)OCC (centres unmarked) | 50 to 500 | –
57 | CC(C)CN(C[C@@H](O)[C@H](Cc1ccccc1)NC(=O)O[C@H]1CO[C@H]2OCC[C@H]21)S(=O)(=O)c1ccc(OCP(=O)(Oc2ccccc2)O[C@@H](C)C(=O)OC(C)C)cc1 (some centres unmarked) [OPh, Lac-iPr] | 500 to 5000 | –
58 | CCOP(=O)(Cc1ccc2c(c1)CCN(CC(NC(=O)OC1COC3OCCC13)C(O)CN(CC(C)C)S(=O)(=O)c1ccc(OC)cc1)C2)OCC (centres unmarked) | < 50 | –
59 | CCOP(=O)(CCN1CCN(CC(NC(=O)OC2COC3OCCC23)C(O)CN(CC(C)C)S(=O)(=O)c2ccc(OC)cc2)CC1)OCC (centres unmarked) | 50 to 500 | –
